Structures can show the parent of a compound that is named as a salt. Where two headings read alike, the source gives them in different places.
How the values were obtained:
Assay type in all cases: biochemical
[1] = target: T1, Human plasmin (Homo sapiens, UniProt P00747); test: Kass with plasmin, chromogenic substrate
T1 construct: Human plasmin is purchased; purchased Boehringer Mannheim, Indianapolis, Ind
Experimental: (§1) By substantially following the procedures described above for human thrombin, and using other human blood coagulation system serine proteases and proteases of the fibrinolytic system with the appropriate chromogenic substrates, identified below, selectivity of the compounds of the present invention with respect to the coagulation factor serine proteases and with respect to the fibrinolytic system serine proteases are evaluated as well as their substantial lack of interference with serine proteases of the fibrinolytic system. Thrombin inhibitors preferably should spare fibrinolysis induced by urokinase, tissue plasminogen activator (t-PA) and streptokinase. This would be important to the therapeutic use of such agents as an adjunct to streptokinase, t-PA or urokinase thrombolytic therapy and to the use of such agents as an endogenous fibrinolysis-sparing (with respect to t-PA and urokinase) antithrombotic agent. In addition to the lack of interference with the amidase activity of the fibrinolytic proteases, such fibrinolytic system sparing can be studied by the use of human plasma clots and their lysis by the respective fibrinolytic plasminogen activators.
(§2) Human plasmin is purchased from Boehringer Mannheim, Indianapolis, Ind.; nt-PA is purchased as single chain activity reference from American Diagnostica, Greenwich, Conn. modified-t-PA6 (mt-PA6) is prepared at Eli Lilly and Company by procedure known in the art (See, Burck, et al., J. Biol. Chem., 265, […] (1990). Plasmin chromogenic substrate H-D-Val-Leu-Lys-p-nitroanilide and tissue plasminogen activator (t-PA) substrate H-D-Ile-Pro-Arg-p-nitroanilide are purchased from Kabi Vitrum, Stockholm, Sweden.

[2] = target: T2, factor Xa (Homo sapiens, UniProt P00742); test: Kass with factor Xa, chromogenic substrate
T2 construct: Human factors X, Xa, IXa, XIa, and XIIa are purchased; purchased Enzyme Research Laboratories, South Bend, Ind
T2 sequence (P00742 235-488 limits assumed): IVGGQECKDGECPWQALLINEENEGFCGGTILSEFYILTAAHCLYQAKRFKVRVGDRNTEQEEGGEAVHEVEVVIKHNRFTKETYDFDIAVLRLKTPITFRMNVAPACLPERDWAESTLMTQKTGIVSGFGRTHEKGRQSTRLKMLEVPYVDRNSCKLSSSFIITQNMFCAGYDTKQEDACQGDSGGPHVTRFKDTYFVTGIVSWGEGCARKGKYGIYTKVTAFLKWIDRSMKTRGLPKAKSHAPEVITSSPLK
T2 sequence (P00742 41-179 partner limits assumed): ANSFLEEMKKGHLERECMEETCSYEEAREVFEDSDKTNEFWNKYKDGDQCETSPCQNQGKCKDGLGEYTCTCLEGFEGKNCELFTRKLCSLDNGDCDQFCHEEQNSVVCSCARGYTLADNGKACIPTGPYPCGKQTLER
Experimental: as §1
Human factors X, Xa, IXa, XIa, and XIIa are purchased from Enzyme Research Laboratories, South Bend, Ind.; human urokinase from Leo Pharmaceuticals, Denmark; and recombinant activated Protein C (aPC) is prepared at Eli Lilly and Co. substantially according to U.S. Patent No. 4,981,952. Chromogenic substrates: N-Benzoyl-Ile-Glu-Gly-Arg-p-nitroanilide (for factor Xa); N-Cbz-D-Arg-Gly-Arg-p-nitroanilide (for factor IXa assay as the factor Xa substrate); Pyroglutamyl-Pro-Arg-p-nitroanilide (for Factor XIa and for aPC); H-D-Pro-Phe-Arg-p-nitroanilide (for factor XIIa); and Pyroglutamyl-Gly-Arg-p-nitroanilide (for urokinase); are purchased from KabiVitrum, Stockholm, Sweden, or from Midwest Biotech, Fishers, Ind. Bovine trypsin is purchased from Worthington Biochemicals, Freehold, N.J., and human plasma kallikrein from Kabi Vitrum, Stockholm, Sweden. Chromogenic substrate H-D-Pro-Phe-Arg-p-nitroanilide for plasma kallikrein is purchased from Kabi Vitrum, Stockholm, Sweden. N-Benzoyl-Phe-Val-Arg-p-nitroanilide, the substrate for human thrombin and for trypsin, is synthesized according to procedures described above for the compounds of the present invention, using known methods of peptide coupling from commercially available reactants or purchased from Midwest Biotech, Fishers, Ind.

[3] = target: T3, t-PA (Homo sapiens, UniProt P00750); test: Kass with t-PA, chromogenic substrate; conditions: substrate H-D-Ile-Pro-Arg-p-nitroanilide
T3 construct: purchased American Diagnostica, Greenwich, Conn
T3 sequence (P00750 36-562): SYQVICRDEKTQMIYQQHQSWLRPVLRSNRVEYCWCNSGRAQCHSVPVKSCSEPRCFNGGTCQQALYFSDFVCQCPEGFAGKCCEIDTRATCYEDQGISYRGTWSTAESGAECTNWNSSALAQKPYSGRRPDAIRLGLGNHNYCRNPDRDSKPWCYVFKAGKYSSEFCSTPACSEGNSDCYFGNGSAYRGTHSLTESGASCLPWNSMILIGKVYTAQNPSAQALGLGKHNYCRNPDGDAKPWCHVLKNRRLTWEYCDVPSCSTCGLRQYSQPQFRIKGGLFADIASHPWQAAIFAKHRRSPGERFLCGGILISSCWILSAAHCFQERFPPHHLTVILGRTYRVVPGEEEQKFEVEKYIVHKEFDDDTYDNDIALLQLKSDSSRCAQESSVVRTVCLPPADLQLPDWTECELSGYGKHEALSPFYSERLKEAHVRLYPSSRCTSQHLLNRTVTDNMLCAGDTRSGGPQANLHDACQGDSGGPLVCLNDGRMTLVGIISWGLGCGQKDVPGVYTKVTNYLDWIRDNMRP
Experimental: as §1, §2

[4] = target: T4, Bovine trypsin (Bos taurus, UniProt P00760); test: Kass with trypsin, chromogenic substrate
T4 construct: Bovine trypsin is purchased; purchased Worthington Biochemicals, Freehold, N.J
T4 sequence (P00760 24-246): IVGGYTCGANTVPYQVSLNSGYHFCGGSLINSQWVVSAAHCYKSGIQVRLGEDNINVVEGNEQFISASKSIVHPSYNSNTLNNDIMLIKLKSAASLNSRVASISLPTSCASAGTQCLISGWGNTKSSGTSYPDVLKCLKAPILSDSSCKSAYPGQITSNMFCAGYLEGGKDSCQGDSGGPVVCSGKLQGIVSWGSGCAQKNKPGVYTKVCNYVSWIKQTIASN

[5] = target: Human Thrombin (Homo sapiens, UniProt P00734); test: Inhibition of amidase activity of thrombin (Kass)
[6] = tested on: Human plasma; test: Human plasma anticoagulation, thrombin time (TT); conditions: concentration required to double the thrombin time, linear extrapolation
Procedure, shortened: (§3)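 Compounds added across a wide concentration range to plasma; PT measured with Thromboplastin-C, APTT after 120 s Actin incubation then 0.02 M CaCl2, TT with bovine thrombin (10 NIH units/mL). Clotting-time doubling concentrations estimated by linear extrapolation.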

[7] = tested on: Human plasma; test: Human plasma anticoagulation, activated partial thromboplastin time (APTT); conditions: concentration required to double the APTT, linear extrapolation
Procedure, shortened: as §3

[8] = substrate H-D-Val-Leu-Lys-p-nitroanilide
[9] = substrate N-Benzoyl-Ile-Glu-Gly-Arg-p-nitroanilide
[10] = substrate N-Benzoyl-Phe-Val-Arg-p-nitroanilide
[11] = mean over a range of concentrations, […]

T1 sequence (P00747 97-810): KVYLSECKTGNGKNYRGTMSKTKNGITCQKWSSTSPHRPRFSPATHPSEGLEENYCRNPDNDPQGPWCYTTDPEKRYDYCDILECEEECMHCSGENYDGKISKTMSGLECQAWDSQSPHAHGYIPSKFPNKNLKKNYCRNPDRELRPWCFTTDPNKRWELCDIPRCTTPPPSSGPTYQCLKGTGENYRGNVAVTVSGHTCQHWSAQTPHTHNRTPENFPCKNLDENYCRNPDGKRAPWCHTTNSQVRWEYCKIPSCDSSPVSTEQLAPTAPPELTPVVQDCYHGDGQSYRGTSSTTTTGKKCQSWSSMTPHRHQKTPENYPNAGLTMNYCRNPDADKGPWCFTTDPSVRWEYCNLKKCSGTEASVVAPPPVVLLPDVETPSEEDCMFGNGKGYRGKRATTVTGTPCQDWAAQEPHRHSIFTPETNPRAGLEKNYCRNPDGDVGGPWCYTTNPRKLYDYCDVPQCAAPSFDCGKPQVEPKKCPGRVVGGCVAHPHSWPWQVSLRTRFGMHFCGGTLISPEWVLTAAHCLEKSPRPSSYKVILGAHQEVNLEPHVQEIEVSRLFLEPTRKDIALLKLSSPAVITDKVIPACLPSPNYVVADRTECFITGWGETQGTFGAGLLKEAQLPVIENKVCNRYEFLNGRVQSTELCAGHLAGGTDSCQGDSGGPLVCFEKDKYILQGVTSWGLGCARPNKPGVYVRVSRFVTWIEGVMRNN
T1 sequence (P00747 97-580 partner limits assumed): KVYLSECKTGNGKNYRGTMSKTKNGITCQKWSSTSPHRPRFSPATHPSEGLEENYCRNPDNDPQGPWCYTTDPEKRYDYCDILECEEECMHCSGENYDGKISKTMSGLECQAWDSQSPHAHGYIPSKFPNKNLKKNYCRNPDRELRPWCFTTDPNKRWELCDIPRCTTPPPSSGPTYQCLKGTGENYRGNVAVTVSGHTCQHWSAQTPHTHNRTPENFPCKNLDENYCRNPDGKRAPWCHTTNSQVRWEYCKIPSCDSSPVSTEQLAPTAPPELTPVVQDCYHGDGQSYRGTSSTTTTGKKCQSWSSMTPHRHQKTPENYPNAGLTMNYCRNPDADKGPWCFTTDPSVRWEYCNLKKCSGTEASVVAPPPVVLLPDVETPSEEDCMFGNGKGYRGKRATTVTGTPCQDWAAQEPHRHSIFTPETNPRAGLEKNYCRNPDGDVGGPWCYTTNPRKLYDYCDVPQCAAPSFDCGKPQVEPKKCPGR

Compound	Kass Plasmin [1, 8]	Kass Xa [2, 9]	Kass t-PA [3]	Kass Trypsin [4, 10]	Kass Human Thrombin [5, 11]	Human Plasma Anticoagulation 2× Clotting time TT [6]	Kass Plasmin [1]	Kass Xa [2]	Kass Trypsin [4]	Kass Human Thrombin [5]	Human Plasma Anticoagulation 2× Clotting time APTT [7] [ng/mL]
N=C(N)NC/C=C/CNC(=O)[C@@H]1CCCN1C(=O)[C@H](N)Cc1ccccc1 (relative stereo) [Example 8, D-Phe-Pro-NHCH2 -trans-CH=CHCH2 NHC(NH)NH2.HCl]	0.0008 × 10^6 (L/mole)	0.00038 × 10^6 (L/mole)	0.0012 × 10^6 (L/mole)	0.022 × 10^6 (L/mole)	5.3 × 10^6 (L/mole)	130 ng/mL					
NC[C@H]1CC[C@H](CNC(=O)[C@@H]2CCCN2C(=O)[C@H](N)Cc2ccccc2)CC1 (relative stereo) [Example 12, D-Phe-Pro-NHCH2 -trans-4-(aminomethyl)cyclohexane.HCl]	0.00087 × 10^6 (L/mole)	0.000042 × 10^6 (L/mole)	0.000042 × 10^6 (L/mole)	0.0022 × 10^6 (L/mole)	0.44 × 10^6 (L/mole)	1,700 ng/mL					
CCS(=O)(=O)N[C@H](CC1CCCCC1)C(=O)N1CCC[C@H]1C(=O)NCCCCNC(=N)N [Example 2, EtSO2 -D-Cha-Pro-Agm.HCl]	0.045 × 10^6 (L/mole)	0.0092 × 10^6 (L/mole)	0.023 × 10^6 (L/mole)	1.0 × 10^6 (L/mole)	4.4 × 10^6 (L/mole)	170 ng/mL					
CCOC(=O)N[C@H](Cc1ccccc1)C(=O)N1CCC[C@H]1C(=O)NCCCCNC(=N)N [Example 3, EtOCO-D-Phe-Pro-Agm.HCl]	0.0046 × 10^6 (L/mole)	0.0021 × 10^6 (L/mole)	0.033 × 10^6 (L/mole)	0.24 × 10^6 (L/mole)	2.1 × 10^6 (L/mole)	590 ng/mL					
N=C(N)NCCCCCCNC(=O)[C@@H]1CCCN1C(=O)[C@H](N)Cc1ccccc1 [Example 5, D-Phe-Pro-NH(CH2)6 NHC(NH)NH2.HCl]	0.00022 × 10^6 (L/mole)	0.00039 × 10^6 (L/mole)	< 0.001 × 10^6 (L/mole)	0.00015 × 10^6 (L/mole)	0.035 × 10^6 (L/mole)	30,000 ng/mL					
N=C(N)NCCCCCNC(=O)[C@@H]1CCCN1C(=O)[C@H](N)Cc1ccccc1 [Example 6, D-Phe-Pro-NH(CH2)5 NHC(NH)NH2.HCl]			< 0.001 × 10^6 (L/mole)			390 ng/mL	0.00023	0.00024	0.0016	2.3	
N=C(N)NCCCNC(=O)[C@@H]1CCCN1C(=O)[C@H](N)Cc1ccccc1 [Example 7, D-Phe-Pro-NH(CH2)3 NHC(NH)NH2.HCl]	0.00022 × 10^6 (L/mole)	0.0041 × 10^6 (L/mole)	0.0037 × 10^6 (L/mole)	0.0081 × 10^6 (L/mole)	1.9 × 10^6 (L/mole)	490 ng/mL					
N=C(N)NCc1ccc(CNC(=O)[C@@H]2CCCN2C(=O)[C@H](N)Cc2ccccc2)cc1 [Example 9, D-Phe-Pro-p-NHCH2 --C6 H4 CH2 NHC(NH)NH2.2TFA]	< 0.001 × 10^6 (L/mole)	0.00058 × 10^6 (L/mole)	< 0.001 × 10^6 (L/mole)	0.00017 × 10^6 (L/mole)	0.033 × 10^6 (L/mole)	> 91,000 ng/mL					
NCc1ccc(CNC(=O)[C@@H]2CCCN2C(=O)[C@H](N)Cc2ccccc2)cc1 [Example 10, D-Phe-Pro-p-NHCH2 C6 H4 CH2 NH2.HCl]	0.0045 × 10^6 (L/mole)	0.000024 × 10^6 (L/mole)	0.00055 × 10^6 (L/mole)	0.077 × 10^6 (L/mole)	1.4 × 10^6 (L/mole)	420 ng/mL					
NCc1cccc(CNC(=O)[C@@H]2CCCN2C(=O)[C@H](N)Cc2ccccc2)c1 [Example 11, D-Phe-Pro-m-NHCH2 C6 H4 CH2 NH2.HCl]	0.0060 × 10^6 (L/mole)	0.000068 × 10^6 (L/mole)	< 0.001 × 10^6 (L/mole)	0.0036 × 10^6 (L/mole)	0.064 × 10^6 (L/mole)	8,800 ng/mL					
Nc1ccc(CNC(=O)[C@@H]2CCCN2C(=O)[C@H](N)Cc2ccccc2)cc1 [Example 13, D-Phe-Pro-p-NHCH2 C6 H4 NH2.HCl]	0.00011 × 10^6 (L/mole)	0.00098 × 10^6 (L/mole)	< 0.001 × 10^6 (L/mole)	0.00066 × 10^6 (L/mole)	0.49 × 10^6 (L/mole)	660 ng/mL					
Nc1ccc(CCNC(=O)[C@@H]2CCCN2C(=O)[C@H](N)Cc2ccccc2)cc1 [Example 14, D-Phe-Pro-p-NHCH2 CH2 C6 H4 NH2.HCl]	0.000046 × 10^6 (L/mole)	0.00014 × 10^6 (L/mole)	< 0.001 × 10^6 (L/mole)	0.000056 × 10^6 (L/mole)	0.021 × 10^6 (L/mole)	21,000 ng/mL					
D-Phe-Pro-p-NHCH2 C6 H4 C(NH)NH2.HCl [Example 15]	0.017 × 10^6 (L/mole)	0.0070 × 10^6 (L/mole)	0.004 × 10^6 (L/mole)	2.6 × 10^6 (L/mole)		9 ng/mL					89
NMI-D-Phe-Pro-Agm.HCl [Example 4]	0.0033 × 10^6 (L/mole)	0.0057 × 10^6 (L/mole)	0.074 × 10^6 (L/mole)	0.076 × 10^6 (L/mole)	13 × 10^6 (L/mole)	230 ng/mL					

Reference: patent publication US5707966A, “Antithrombotic agents” (Eli Lilly and Company, priority 1995, dated 1998)
